A value given as a limit tells only on which side of the number the result lay.

We go through 22 compounds from patent publication US9994558B2, “Multicyclic compounds and methods of using same” (Karyopharm Therapeutics Inc., priority 2013, dated 2018).

Common to all, as to assay type: cell-based
One test deals with 3T3 cells. Description: MTT cell proliferation assay, 3T3 cells. Conditions: Mus musculus, NIH3T3; 3T3 fibroblast cells; incubation approximately 64-72 hours. As for the experimental part: (§1) The MTT cell proliferation assay was used to study the cytotoxic properties of the compounds. The assay was performed according to the method described by Roche Molecular Biochemicals, with minor modifications. The assay is based on the cleavage of the tetrazolium salt, MTT, in the presence of an electron-coupling reagent. The water-insoluble formazan salt produced must be solubilized in an additional step. Cells grown in a 96-well tissue culture plate were incubated with the MTT solution for approximately 4 hours. After this incubation period, a water-insoluble formazan dye formed. After solubilization, the formazan dye was quantitated using a scanning multi-well spectrophotometer (ELISA reader). […] The cells were seeded at 5,000-10,000 cells in each well of 96-well plate in 100 μL of fresh culture medium and were allowed to attach overnight. The stock solutions of the compounds were diluted in 100 μL cell culture medium to obtain eight concentrations of each test compound, ranging from 1 nM to 30 μM. […] All optical densities were measured at 490 nm using a Vmax Kinetic Microplate Reader (Molecular Devices). In most cases, the assay was performed in duplicate and the results were presented as a mean percent inhibition to the negative control±SE. The following formula was used to calculate the percent of inhibition. Inhibition (%)=(1−(ODo/OD))×100.
(§2) The compounds were tested against MS751, Z138 and 3T3 cells. The MS751 cell line is derived from a metastasis to lymph node of human cervix from a patient diagnosed with squameous cell carcinoma of the cervix. The […] cell line is a mature B-cell acute lymphoblastic leukemia cell line derived from a patient with chronic lymphocytic leukemia. 3T3 cells are standard fibroblast cells; they were originally isolated from Swiss mouse embryo tissue.

A further test deals with Z138 cells. The experiment in a line: MTT cell proliferation assay, Z138 cells. The following applies: Homo sapiens, Z-138, incubation approximately 64-72 hours. As for the experimental part:
as §1, §2

A further test concerns MS751 cells. Description: MTT cell proliferation assay, MS751 cells. The following applies: Homo sapiens, incubation approximately 64-72 hours. As for the experimental part:
as §1, §2
Background: Tetrazolium dyes change colour on reduction, which living cells bring about.

As usually defined, the IC50 is the midpoint of a concentration-inhibition curve. Lower therefore signals greater potency in that assay. Take `CC(=O)c1ccc(-c2ccc(OCCNC(=O)/C=C/c3ccc(N)nc3)c(Cl)n2)s1` [Compound 330, (E)-N-(2-(6-(5-acetylthiophen-2-yl)-2-chloropyridin-3-yloxy)ethyl)-3-(6-aminopyridin-3-yl)acrylamide]: the half-maximal inhibitory concentration (IC50) was above 10 µM with 3T3 cells, 0.1 to 5 µM with Z138 cells and 0.1 to 5 µM in the test with MS751 cells.

Regarding `CC(=O)c1ccc(-c2cnc(OCCNC(=O)/C=C/c3ccc(N)nc3)c(Cl)c2)s1` [Compound 331, (E)-N-(2-(5-(5-acetylthiophen-2-yl)-3-chloropyridin-2-yloxy)ethyl)-3-(6-aminopyridin-3-yl)acrylamide], the IC50 in the test on 3T3 cells, with Z138 cells and with MS751 cells was above 10 µM throughout.

Turning to `CN1CCN(C(=O)c2ccc(-c3ccc(OCCNC(=O)/C=C/c4ccc(N)nc4)c(Cl)c3)cc2)CC1` [Compound 313, (E)-3-(6-aminopyridin-3-yl)-N-(2-(3-chloro-4′-(4-methylpiperazine-1-carbonyl)biphenyl-4-yloxy)ethyl)acrylamide], the half-inhibitory concentration (IC50) is 0.1 to 5 µM in the test with 3T3 cells, below 0.1 µM in the test on Z138 cells and below 0.1 µM with MS751 cells.

Regarding `Nc1ccc(CNC(=O)/C=C\COc2ccc(-c3ccc(C(=O)N4CCC(F)(F)CC4)cn3)cc2C(F)(F)F)cn1` [Compound 354, (Z)—N-((6-aminopyridin-3-yl)methyl)-4-(4-(5-(4,4-difluoropiperidine-1-carbonyl)pyridin-2-yl)-2-(trifluoromethyl)phenoxy)but-2-enamide], the IC50 with 3T3 cells, in the test on Z138 cells and in the test with MS751 cells was above 10 µM throughout.

Turning to `CC(=O)c1ccc(-c2ccc(OCCNC(=O)CCc3cccnc3)c(Cl)c2)s1` [Compound 306, N-(2-(4-(5-acetylthiophen-2-yl)-2-chlorophenoxy)ethyl)-3-(pyridin-3-yl)propanamide], the concentration for half-maximal inhibition (IC50) in the test on 3T3 cells was above 10 µM; in the test on Z138 cells, above 10 µM; with MS751 cells, 5 to 10 µM.

In the case of `Nc1ccc(/C=C/C(=O)NCCCOc2cc(Cl)cc(-c3ccc(C(=O)N4CCOCC4)cc3)c2)cn1` [Compound 345, (E)-3-(6-aminopyridin-3-yl)-N-(3-(5-chloro-4′-(morpholine-4-carbonyl)biphenyl-3-yloxy)propyl)acrylamide], the half-maximal inhibitory concentration (IC50) was 0.1 to 5 µM with 3T3 cells, below 0.1 µM in the test with Z138 cells and below 0.1 µM with MS751 cells.

On to `CC(C)(CNC(=O)/C=C/c1ccc(N)nc1)Oc1ccc(-c2ccc(C(=O)N3CC(F)(F)C3)cc2)cc1Cl` [Compound 333, (E)-3-(6-aminopyridin-3-yl)-N-(2-(3-chloro-4′-(3,3-difluoroazetidine-1-carbonyl)biphenyl-4-yloxy)-2-methylpropyl)acrylamide], for which the IC50 is above 10 µM in the test on 3T3 cells, 0.1 to 5 µM in the test on Z138 cells and 0.1 to 5 µM in the test with MS751 cells.

With `CC(=O)c1ccc(-c2ccc(NCCNC(=O)/C=C/c3cccnc3)c(Cl)c2)s1` [Compound 322, (E)-N-(2-(4-(5-acetylthiophen-2-yl)-2-chlorophenylamino)ethyl)-3-(pyridin-3-yl)acrylamide], the IC50 with 3T3 cells is above 10 µM; in the test on Z138 cells, 0.1 to 5 µM; with MS751 cells it was 0.1 to 5 µM.

Turning to `CN(C)C(=O)c1ccc(-c2ccc(OCCNC(=O)/C=C/c3ccc(N)nc3)c(Cl)c2)cc1` [Compound 325, (E)-4′-(2-(3-(6-aminopyridin-3-yl)acrylamido)ethoxy)-3′-chloro-N,N-dimethylbiphenyl-4-carboxamide], the half-maximal inhibitory concentration (IC50) with 3T3 cells was above 10 µM; in the test on Z138 cells, 0.1 to 5 µM; in the test on MS751 cells, 0.1 to 5 µM.

With `CC(O)c1ccc(-c2ccc(OCCNC(=O)/C=C/c3cccnc3)c(Cl)c2)s1` (stereo not drawn) [Compound 301, (E)-N-(2-(2-chloro-4-(5-(1-hydroxyethyl)thiophen-2-yl)phenoxy)ethyl)-3-(pyridin-3-yl) acrylamide], the IC50 with 3T3 cells was 0.1 to 5 µM; in the test on Z138 cells, 0.1 to 5 µM; with MS751 cells, below 0.1 µM.

`Nc1ccc(/C=C/C(=O)NCCOc2ccc(-c3cccc(C(=O)N4CCOCC4)c3)cc2Cl)cn1` [Compound 317, (E)-3-(6-aminopyridin-3-yl)-N-(2-(3-chloro-3′-(morpholine-4-carbonyl)biphenyl-4-yloxy)ethyl)acrylamide]: the values for the concentration for half-maximal inhibition (IC50) with 3T3 cells, in the test with Z138 cells and in the test with MS751 cells were above 10 µM, below 0.1 µM and below 0.1 µM, respectively.

`Nc1ccc(/C=C/C(=O)NCCCOc2ccc(-c3ccc(C(=O)N4CC(F)(F)C4)cc3)cc2Cl)cn1` [Compound 336, (E)-3-(6-aminopyridin-3-yl)-N-(3-(3-chloro-4′-(3,3-difluoroazetidine-1-carbonyl)biphenyl-4-yloxy)propyl)acrylamide]: the IC50 with 3T3 cells was 0.1 to 5 µM; with Z138 cells it was below 0.1 µM; with MS751 cells, below 0.1 µM.

`CC(CCOc1cc(-c2ccc(C(=O)N3CCC(F)(F)CC3)cn2)cc(C(F)(F)F)c1)NC(=O)/C=C/c1ccc(N)nc1` (stereo not drawn) [Compound 352, (E)-3-(6-aminopyridin-3-yl)-N-(4-(3-(5-(4,4-difluoropiperidine-1-carbonyl)pyridin-2-yl)-5-(trifluoromethyl)phenoxy)butan-2-yl)acrylamide]: the figures for the IC50 in the test on 3T3 cells, in the test on Z138 cells and with MS751 cells were above 10 µM, 0.1 to 5 µM and 0.1 to 5 µM, respectively.

As to `Nc1ccc(/C=C/C(=O)NCCOc2ccc(-c3ccc(C(=O)N4CCCCC4)cc3)cc2Cl)cn1` [Compound 329, (E)-3-(6-aminopyridin-3-yl)-N-(2-(3-chloro-4′-(piperidine-1-carbonyl)biphenyl-4-yloxy)ethyl)acrylamide], the 50% inhibitory concentration (IC50) in the test with 3T3 cells was above 10 µM; in the test on Z138 cells, below 0.1 µM; in the test on MS751 cells it was below 0.1 µM.

For the compound `CC1(C)COCCN1C(=O)c1ccc(-c2ccc(OCCNC(=O)/C=C/c3ccc(N)nc3)c(Cl)c2)cc1` [Compound 335, (E)-3-(6-aminopyridin-3-yl)-N-(2-(3-chloro-4′-(3,3-dimethylmorpholine-4-carbonyl)biphenyl-4-yloxy)ethyl)acrylamide], the IC50 is 0.1 to 5 µM in the test with 3T3 cells, below 0.1 µM with Z138 cells and below 0.1 µM with MS751 cells.

Regarding `CC(=O)c1ccc(-c2ccc(OCCN(C)C(=O)/C=C/c3cccnc3)c(Cl)c2)s1` [Compound 311, (E)-N-(2-(4-(5-acetylthiophen-2-yl)-2-chlorophenoxy)ethyl)-N-methyl-3-(pyridin-3-yl)acrylamide], the 50% inhibitory concentration (IC50) in the test on 3T3 cells, in the test with Z138 cells and with MS751 cells was 0.1 to 5 µM in each case.

Regarding `Nc1ccc(/C=C/C(=O)NCCOc2ccc(-c3ccc(C(=O)N4CCOCC4)nc3)cc2Cl)cn1` [Compound 321, (E)-3-(6-aminopyridin-3-yl)-N-(2-(2-chloro-4-(6-(morpholine-4-carbonyl)pyridin-3-yl)phenoxy)ethyl)acrylamide], the 50% inhibitory concentration (IC50) in the test on 3T3 cells is above 10 µM; in the test on Z138 cells, below 0.1 µM; in the test with MS751 cells it was below 0.1 µM.

As to `Nc1ccc(/C=C/C(=O)NCCOc2ccc(-c3ccc(C(=O)N4CCOCC4)cc3)cc2Cl)cn1` [Compound 316, (E)-3-(6-aminopyridin-3-yl)-N-(2-(3-chloro-4′-(morpholine-4-carbonyl)biphenyl-4-yloxy)ethyl)acrylamide], the half-inhibitory concentration (IC50) was 0.1 to 5 µM with 3T3 cells, below 0.1 µM with Z138 cells and below 0.1 µM with MS751 cells.

For `CC(=O)c1ccc(-c2ccc(OCCNC(=O)/C=C/c3ccc(N)nc3)c(Cl)c2)s1` [Compound 308, (E)-N-(2-(4-(5-acetylthiophen-2-yl)-2-chlorophenoxy)ethyl)-3-(6-aminopyridin-3-yl) acrylamide], the half-maximal inhibitory concentration (IC50) with 3T3 cells is above 10 µM; in the test with Z138 cells, 0.1 to 5 µM; in the test with MS751 cells, 0.1 to 5 µM.

`Nc1ccc(CNC(=O)/C=C/COc2ccc(-c3ccc(C(=O)N4CCC(F)(F)CC4)cn3)cc2C(F)(F)F)cn1` [Compound 353, (E)-N-((6-aminopyridin-3-yl)methyl)-4-(4-(5-(4,4-difluoropiperidine-1-carbonyl)pyridin-2-yl)-2-(trifluoromethyl)phenoxy)but-2-enamide]: the half-maximal inhibitory concentration (IC50) was above 10 µM with 3T3 cells, 0.1 to 5 µM in the test with Z138 cells and 0.1 to 5 µM in the test with MS751 cells.

On to `CN(CCOc1ccc(-c2ccc(C(=O)N3CC(F)(F)C3)cc2)cc1Cl)C(=O)/C=C/c1ccc(N)nc1` [Compound 334, (E)-3-(6-aminopyridin-3-yl)-N-(2-(3-chloro-4′-(3,3-difluoroazetidine-1-carbonyl)biphenyl-4-yloxy)ethyl)-N-methylacrylamide], for which the concentration for half-maximal inhibition (IC50) is 5 to 10 µM in the test on 3T3 cells, below 0.1 µM in the test on Z138 cells and 0.1 to 5 µM in the test with MS751 cells.

Regarding `Nc1ccc(/C=C/C(=O)NCCOc2ccc(-c3nnc(C(=O)N4CCOCC4)o3)cc2Cl)cn1` [Compound 351, (E)-3-(6-aminopyridin-3-yl)-N-(2-(2-chloro-4-(5-(morpholine-4-carbonyl)-1,3,4-oxadiazol-2-yl)phenoxy)ethyl)acrylamide], the IC50 in the test with 3T3 cells is above 10 µM; in the test with Z138 cells it was 0.1 to 5 µM; in the test on MS751 cells, 0.1 to 5 µM.
